{"source": "ChEMBL document CHEMBL3352358", "about": "“Discovery of 2-(cyclohexylmethylamino)pyrimidines as a new class of reversible valosine containing protein inhibitors” (J Med Chem, 2014)", "key": {"[1]": {"molecular_target": "Transitional endoplasmic reticulum ATPase (Homo sapiens, UniProt P55072)", "sequence (P55072 whole entry)": "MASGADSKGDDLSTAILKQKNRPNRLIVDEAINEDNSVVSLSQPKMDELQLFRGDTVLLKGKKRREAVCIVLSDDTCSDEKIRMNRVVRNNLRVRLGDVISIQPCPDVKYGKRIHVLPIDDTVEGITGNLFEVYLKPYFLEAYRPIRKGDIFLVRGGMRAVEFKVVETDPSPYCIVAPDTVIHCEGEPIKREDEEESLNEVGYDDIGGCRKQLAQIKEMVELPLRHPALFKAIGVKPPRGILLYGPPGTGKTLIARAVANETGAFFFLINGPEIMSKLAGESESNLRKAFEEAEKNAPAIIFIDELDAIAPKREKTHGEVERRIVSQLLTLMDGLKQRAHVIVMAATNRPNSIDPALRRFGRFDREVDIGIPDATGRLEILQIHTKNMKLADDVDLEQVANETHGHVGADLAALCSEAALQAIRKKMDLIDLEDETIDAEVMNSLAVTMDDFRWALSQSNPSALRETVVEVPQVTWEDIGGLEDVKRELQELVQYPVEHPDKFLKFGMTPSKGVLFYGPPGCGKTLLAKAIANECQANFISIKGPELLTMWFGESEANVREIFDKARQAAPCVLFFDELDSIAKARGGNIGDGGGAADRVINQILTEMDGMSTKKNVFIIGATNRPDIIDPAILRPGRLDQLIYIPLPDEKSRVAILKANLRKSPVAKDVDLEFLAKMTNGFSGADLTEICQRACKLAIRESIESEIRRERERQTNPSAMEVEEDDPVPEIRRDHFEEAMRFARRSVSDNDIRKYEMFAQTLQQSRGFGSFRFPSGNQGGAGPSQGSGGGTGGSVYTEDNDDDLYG", "assay": "biochemical", "type": "cell-based", "description": "Inhibition of human full length VCP (2 to 806 residues) expressed in High5 insect cells assessed as reduction in ATPase activity by measuring ADP formation by NADH coupled assay"}, "[2]": {"assay": "Inhibition of cell proliferation of human HCT116 cells after 72 hrs by thermostable firefly luciferase based assay", "type": "functional, HCT-116", "conditions": "Homo sapiens, HCT-116, 72 h; read-out: IC50"}}}
{"smiles": "O=C(O)[C@H]1CC[C@H](CNc2nc(NCc3ccccc3)cc(-c3ccccc3)n2)CC1", "values": [{"measurement": "IC50", "setting": "[1]", "value": 27, "unit": "nM"}, {"measurement": "IC50", "setting": "[2]", "value": "> 20", "unit": "µM"}]}
{"smiles": "NC(=O)[C@H]1CC[C@H](CNc2nc(NCc3ccccc3)cc(-c3ccccc3)n2)CC1", "values": [{"measurement": "IC50", "setting": "[1]", "value": 127, "unit": "nM"}, {"measurement": "IC50", "setting": "[2]", "value": 9.58, "unit": "µM"}]}
{"smiles": "CNC(=O)[C@H]1CC[C@H](CNc2nc(NCc3ccccc3)cc(-c3ccccc3)n2)CC1", "values": [{"measurement": "IC50", "setting": "[1]", "value": 448, "unit": "nM"}, {"measurement": "IC50", "setting": "[2]", "value": 9.26, "unit": "µM"}]}
{"smiles": "CS(=O)(=O)NC(=O)[C@H]1CC[C@H](CNc2nc(NCc3ccccc3)cc(-c3ccccc3)n2)CC1", "values": [{"measurement": "IC50", "setting": "[1]", "value": 133, "unit": "nM"}, {"measurement": "IC50", "setting": "[2]", "value": "> 20", "unit": "µM"}]}
{"smiles": "O=C(NS(=O)(=O)C(F)(F)F)[C@H]1CC[C@H](CNc2nc(NCc3ccccc3)cc(-c3ccccc3)n2)CC1", "values": [{"measurement": "IC50", "setting": "[1]", "value": 264, "unit": "nM"}, {"measurement": "IC50", "setting": "[2]", "value": "> 20", "unit": "µM"}]}
{"smiles": "NNC(=O)[C@H]1CC[C@H](CNc2nc(NCc3ccccc3)cc(-c3ccccc3)n2)CC1", "values": [{"measurement": "IC50", "setting": "[1]", "value": 986, "unit": "nM"}, {"measurement": "IC50", "setting": "[2]", "value": "> 20", "unit": "µM"}]}
{"smiles": "NC(=O)[C@H]1CC[C@H](CNc2nc(NCc3ccccc3)cc(-c3ccccc3F)n2)CC1", "values": [{"measurement": "IC50", "setting": "[1]", "value": 46, "unit": "nM"}, {"measurement": "IC50", "setting": "[2]", "value": "> 10", "unit": "µM"}]}
